Where two headings read alike, the source gives them in different places.
Key:
[1] = test system: Tonische Konvulsionen der Kinterextremitäten; assay: Maximal electroshock test in rats; assay type: in vivo, Ratten; settings: for ED50: Rattus norvegicus
Description: Die akute Schutzwirkung von Carbamazepin nach intravenöser Verabreichung im Vergleich zur oralen wurde mit Hilfe des maximalen Elektroschocks ermittelt. Die folgenden Methoden wurden verwendet: - Elektroschock Test an Ratten: Tonische Konvulsionen der Kinterextremitäten wurden durch Verabreichung eines Wechselstroms von 50 Hz und 36 mA während 0,63 Sekunden mit Hilfe von Cornealelektroden ausgelöst. Es wurden 10 Ratten pro Dosis und Zeiteinheit verwendet; eine Gruppe diente als Kontrolle. Die Anzahl der Ratten, die keine tonische Konvulsion der Hinterextremitäten aufwiesen, wurde für jede Gruppe bestimmt. Die ED₅₀ wurde mit Hilfe der Regressionsanalyse nach der Methode von Spearman und Kärber berechnet. - Elektroschock Test an Mäusen: Tonische Konvulsionen der Hinterextremitäten wurden durch Verabreichung eines Wechselstromes von 50 Hz und 18 mA während 0,2 Sekunden mittels Cornealelektroden ausgelöst. Für jede Dosis und Zeiteinheit wurden 10 Mäuse verwendet; eine Gruppe diente als Kontrolle. Die Anzahl der Mäuse, die keine tonische Konvulsion der Hinterextremitäten zeigten, wurde für jede Gruppe bestimmt. Die ED₅₀ wurde mit Hilfe der Regressionsanalyse nach der Methode von Spearman und Kärber bestimmt.

[2] = Dissolution of dry preparations in water; assay type: physicochemical; settings: without aids, at 20°C
Experimental: Die unter den Nummern 14 bis 17 hergestellten Trockenpräparate lösen sich ohne Hilfsmittel in weniger als einer Minute bei 20°C in Wasser, während sich mikrokristallisiertes Carbamazepin unter den gleichen Bedingungen nicht löst.

[3] = test system: Tonische Konvulsionen der Hinterextremitäten; assay: Maximal electroshock test in mice; assay type: in vivo, Mäuse; settings: for ED50: Mus musculus
Description: Die akute Schutzwirkung von Carbamazepin nach intravenöser Verabreichung im Vergleich zur oralen wurde mit Hilfe des maximalen Elektroschocks ermittelt. Die folgenden Methoden wurden verwendet: - Elektroschock Test an Ratten: Tonische Konvulsionen […] durch Verabreichung eines Wechselstroms von 50 Hz und 36 mA während 0,63 Sekunden mit Hilfe von Cornealelektroden ausgelöst. Es wurden 10 Ratten pro Dosis und Zeiteinheit verwendet; eine Gruppe diente als Kontrolle. Die Anzahl der Ratten, die keine tonische Konvulsion […], wurde für jede Gruppe bestimmt. Die ED50 wurde mit Hilfe der Regressionsanalyse nach der Methode von Spearman und Kärber berechnet. - Elektroschock Test an Mäusen: Tonische Konvulsionen […] durch Verabreichung eines Wechselstromes von 50 Hz und 18 […] jede Dosis und Zeiteinheit wurden 10 Mäuse verwendet; eine Gruppe diente als Kontrolle. Die Anzahl der Mäuse, die keine tonische Konvulsion […], wurde für jede Gruppe bestimmt. Die ED50 wurde mit Hilfe der Regressionsanalyse nach der Methode von Spearman und Kärber bestimmt.

SMILES: NC(=O)N1c2ccccc2C=Cc2ccccc21 [Carbamazepin, 5H-Dibenz[b,f]azepin-5-carboxamid]
- ED50 ([1]; 2.5 min, intravenous, 2,5 min after dosing, read-out: ED₅₀ in mg/kg intravenös Ratten): 1.9 mg/kg
- ED50 ([1]; 2.5 min, oral, 2,5 min after dosing, read-out: ED₅₀ in mg/kg oral Ratten): > 60 mg/kg
- ED50 ([1]; 5 min, intravenous, 5 min after dosing, read-out: ED₅₀ in mg/kg intravenös Ratten): 1.6 mg/kg
- ED50 ([1]; 5 min, oral, 5 min after dosing, read-out: ED₅₀ in mg/kg oral Ratten): 60 mg/kg
- ED50 ([1]; 0.25 h, intravenous, 15 min after dosing, read-out: ED₅₀ in mg/kg intravenös Ratten): 2.5 mg/kg
- ED50 ([1]; 0.25 h, oral, 15 min after dosing, read-out: ED₅₀ in mg/kg oral Ratten): 15.4 mg/kg
- ED50 ([1]; 0.5 h, intravenous, 30 min after dosing, read-out: ED₅₀ in mg/kg intravenös Ratten): 3 mg/kg
- ED50 ([1]; 0.5 h, oral, 30 min after dosing, read-out: ED₅₀ in mg/kg oral Ratten): 9.6 mg/kg
- ED50 ([1]; 1 h, intravenous, 60 min after dosing, read-out: ED₅₀ in mg/kg intravenös Ratten): 2.5 mg/kg
- ED50 ([1]; 1 h, oral, 60 min after dosing, read-out: ED₅₀ in mg/kg oral Ratten): 10 mg/kg
- ED50 ([1]; 2 h, intravenous, 120 min after dosing, read-out: ED₅₀ in mg/kg intravenös Ratten): 4 mg/kg
- ED50 ([1]; 2 h, oral, 120 min after dosing, read-out: ED₅₀ in mg/kg oral Ratten): 12.5 mg/kg
- Schutzwirkung, % bei 10 mg/kg, Ratten ([1]; intravenous, 240 min after dosing, 10 mg/kg, printed in place of an ED₅₀): 40 % bei 10 mg/kg
- Auflösung in Wasser [2]: nicht löst
- ED50 ([3]; 2.5 min, intravenous, 2,5 min after dosing, read-out: ED₅₀ in mg/kg intravenös Mäuse): 5.4 mg/kg
- ED50 ([3]; 5 min, intravenous, 5 min after dosing, read-out: ED₅₀ in mg/kg intravenös Mäuse): 6.2 mg/kg
- ED50 ([3]; 5 min, oral, 5 min after dosing, read-out: ED₅₀ in mg/kg oral Mäuse): 22.7 mg/kg
- ED50 ([3]; 0.25 h, intravenous, 15 min after dosing, read-out: ED₅₀ in mg/kg intravenös Mäuse): 5.4 mg/kg
- ED50 ([3]; 0.25 h, oral, 15 min after dosing, read-out: ED₅₀ in mg/kg oral Mäuse): 22.3 mg/kg
- ED50 ([3]; 0.5 h, intravenous, 30 min after dosing, read-out: ED₅₀ in mg/kg intravenös Mäuse): 6.2 mg/kg
- ED50 ([3]; 0.5 h, oral, 30 min after dosing, read-out: ED₅₀ in mg/kg oral Mäuse): 10.7 mg/kg
- ED50 ([3]; 1 h, intravenous, 60 min after dosing, read-out: ED₅₀ in mg/kg intravenös Mäuse): 9.3 mg/kg
- ED50 ([3]; 1 h, oral, 60 min after dosing, read-out: ED₅₀ in mg/kg oral Mäuse): 13 mg/kg
- ED50 ([3]; 2 h, intravenous, 120 min after dosing, read-out: ED₅₀ in mg/kg intravenös Mäuse): 15.8 mg/kg
- ED50 ([3]; 2 h, oral, 120 min after dosing, read-out: ED₅₀ in mg/kg oral Mäuse): 27 mg/kg
- ED50 ([3]; 4 h, intravenous, 240 min after dosing, read-out: ED₅₀ in mg/kg in Mäuse): > 20 mg/kg
- Schutzwirkung, % bei 60, oral Mäuse ([3]; oral, 2,5 min after dosing, at 60 (column unit mg/kg), printed in place of an ED₅₀): 10 % bei 60

From patent EP0400609A1, “Intravenous solutions with quick action onset” (CIBA-GEIGY AG, priority 1989, dated 1990)
